Activity calls are given as the source filed them.
Columns and labels:
[1] = molecular target: Neuropeptide Y receptor type 2 (Homo sapiens, UniProt P49146); test: IC50 for human NPY-Y2 blockade – cell-based, counter-screen for NPY-Y1 antagonist project, dose response (AID 1278); format: functional
[2] = molecular target: Neuropeptide Y receptor type 1 (Homo sapiens, UniProt P25929); test: IC50 of human NPY-Y1 blockers – cell-based, dose response (AID 1277); format: functional
[3] = molecular target: G2/mitotic-specific cyclin-B1 (Homo sapiens, UniProt P14635); test: Counterscreen assay for inhibitors of Wee1 degradation: dose response cell-based assay to identify inhibitors of cyclin B degradation. [Related pubchem assays: 1410, 1321 ]; format: functional
[4] = molecular target: Wee1-like protein kinase (Homo sapiens, UniProt P30291); test: Dose Response Cell-based Assay for Inhibitors of Wee1 Degradation. [Related pubchem assays: 1410, 1321 ]; format: functional
[5] = tested on: BJ; test: BJ-TERT fibroblast viability loss – cell-based, RAS-independent, luminescence, dose response (AID 1933); format: functional; conditions: Homo sapiens
[6] = Luminescence Cell-Based Dose Response HTS to Identify Inhibitors of 5'UTR Stem-Loop Driven Prion Protein mRNA Translation in H4 Neuroglioblastoma Cells. [Related pubchem assays: 1827 (Project Summary), 1813 (Primary HTS)]; format: functional
[7] = molecular target: T1, Heat shock factor protein 1 (Mus musculus, UniProt P38532); test: decrease of HSF1-responsive luciferase luminescence – cell-based, NIH3T3, dose retest, confirmation (AID 2382); format: functional;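 further: NIH3T3 fibroblasts with HSF1-driven luciferase reporter stressed by proteasome inhibitor MG132; luminescence from HSF1-driven luciferase expression after 8 hours of MG132 stress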
T1 sequence (P38532 whole entry): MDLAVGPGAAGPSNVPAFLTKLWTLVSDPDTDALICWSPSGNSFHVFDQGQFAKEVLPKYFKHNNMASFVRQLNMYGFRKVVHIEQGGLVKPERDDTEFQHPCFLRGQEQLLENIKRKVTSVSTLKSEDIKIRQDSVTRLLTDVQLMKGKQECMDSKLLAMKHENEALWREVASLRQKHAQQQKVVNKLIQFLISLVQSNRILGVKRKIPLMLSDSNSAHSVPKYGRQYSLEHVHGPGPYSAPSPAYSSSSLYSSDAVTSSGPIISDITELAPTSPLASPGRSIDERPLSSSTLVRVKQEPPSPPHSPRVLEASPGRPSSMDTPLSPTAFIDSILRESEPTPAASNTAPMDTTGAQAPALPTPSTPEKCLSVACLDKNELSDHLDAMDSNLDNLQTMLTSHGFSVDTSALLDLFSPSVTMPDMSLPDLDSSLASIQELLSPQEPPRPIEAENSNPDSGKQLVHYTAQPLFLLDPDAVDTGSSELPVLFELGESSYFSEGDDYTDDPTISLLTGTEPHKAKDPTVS

[8] = alpha-synuclein stem-loop luciferase translation blockers – H4 neuroglioma cells, luminescence, confirmation (AID 1988); format: functional, cell-based
[9] = tested on: BJ; test: cells; format: functional, cell-based; conditions: Homo sapiens
[10] = molecular target: Luciferin 4-monooxygenase (Photinus pyralis, UniProt P08659); test: inhibition of purified Photinus pyralis luciferase – biochemical, luminescence, dose response (AID 1891)
[11] = Luminescence Cell-Based Dose Confirmation HTS to Identify Inhibitors of Platelet Dense Granule Release. [Related pubchem assays: 1663 (Primary HTS), 1678 (Summary of Project)]; format: functional
[12] = Luminescence-based counterscreen assay for KLF5 inhibitors: dose response cell-based high throughput screening assay to identify cytotoxic compounds using the IEC-6 intestinal epithelial cell line. [Related pubchem assays: 1700 (Primary screen.), 1834 (Confirmation screen.), 1858 (Summary AID.), 1905 (Counterscreen.)]; format: functional
[13] = tested on: BJ; test: BJ-TERT-LT-ST fibroblast viability loss – cell-based, RAS-independent, luminescence, dose response (AID 1935); format: functional; conditions: Homo sapiens;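 further: BJ fibroblasts immortalized with TERT plus LT and ST oncogenes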
[14] = DRD fibroblast viability loss – cell-based, non-viral oncogenic, luminescence, dose response (AID 1934); format: functional; conditions: Homo sapiens
[15] = tested on: HEK293; test: EBV LMP1 TES2 canonical NF-kB signalling blockers – cell-based, HEK293, luciferase, cherry-pick, dose response (AID 588343); format: functional; conditions: Homo sapiens
[16] = tested on: BJ; test: growth inhibition of engineered Ras-driven BJ cells – cell-based, alamar blue fluorescence, cherrypicked samples, dose response (AID 2631); format: functional; conditions: Homo sapiens;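 further: confirmatory dose-response assay in RAS-dependent BJ fibroblasts engineered with TERT, LT and ST, with cytotoxicity read by fluorescence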
[17] = A549 cell cytotoxicity, dose response, cytotoxicity control, plate reader, cherry-pick, antagonist series (AID 743412); format: functional, cell-based
[18] = toxicity toward HepG2 liver cells – cell-based, plate reader, cherry-pick, antagonist series, cytotoxicity control, dose response (AID 743416); format: functional
[19] = blockers of bursicon-stimulated LGR2 cAMP reporter – cell-based, HEK293, CRE-luciferase reporter, cherry pick, set 2, dose response (AID 743343); format: functional;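 further: transfected cells were stimulated with diluted bursicon conditioned medium after compound addition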
[20] = blockade of melanocortin 4 receptor signaling – cell-based, plate reader, cherry pick, counter-screen for LGR2 antagonist project, dose response (AID 743444); format: functional;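 further: transfected HEK 293 cells stimulated with alpha-MSH peptide; potency of inhibitors of the alpha-MSH evoked signal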
[21] = molecular target: T2, Oxysterols receptor LXR-beta (Homo sapiens, UniProt P55055); format: functional, cell-based;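 further: agonist activity at LXR measured by a cell-based luminescence readout across a dose range, run as a counterscreen for daf-12 agonists; HEK293 cells with Gal4-LXR fusion and GAL4-driven luciferase reporter; potency for activation of Gal4-LXR reporter so compounds are agonists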
T2 sequence (P55055 whole entry): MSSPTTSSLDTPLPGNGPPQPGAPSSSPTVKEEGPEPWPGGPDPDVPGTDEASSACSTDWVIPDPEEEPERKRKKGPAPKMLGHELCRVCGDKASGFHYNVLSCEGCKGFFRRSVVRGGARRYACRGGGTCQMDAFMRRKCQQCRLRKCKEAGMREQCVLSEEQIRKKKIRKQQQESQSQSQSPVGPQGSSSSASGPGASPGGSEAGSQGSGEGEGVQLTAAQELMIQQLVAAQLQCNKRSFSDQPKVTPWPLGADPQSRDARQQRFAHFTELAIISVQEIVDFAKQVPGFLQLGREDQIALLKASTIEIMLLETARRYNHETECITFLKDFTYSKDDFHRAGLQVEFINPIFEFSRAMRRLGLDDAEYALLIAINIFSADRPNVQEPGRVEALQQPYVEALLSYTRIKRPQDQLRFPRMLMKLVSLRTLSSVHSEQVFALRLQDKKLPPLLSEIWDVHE

[22] = molecular target: Peroxisome proliferator-activated receptor gamma/Nuclear receptor coactivator 1 (Homo sapiens, UniProt P37231); test: (§1) TR-FRET dose response biochemical High Throughput Screening assay for agonists of the steroid receptor coactivator 1 (SRC-1) recruitment by the peroxisome proliferator-activated receptor gamma (PPAR gamma): non-selective agonists. [Related pubchem assays (depositor defined):AID1300, AID1808, AID504735, AID631]; format: protein assay
[23] = molecular target: Peroxisome proliferator-activated receptor gamma/Nuclear receptor coactivator 3 (Homo sapiens, UniProt P37231); test: as §1, with “3 (SRC-3)” for “1 (SRC-1)”, “assays: 1301 (Confirmation screen.), 1048 (Primary screen.)]” for “assays (depositor defined):AID1300, AID1808, AID504735, AID631]”; format: functional
[24] = Luminescence Cell-Based/Microorganism Confirmation at Dose of Inhibitors of Trypanosoma cruzi Infection. [Related pubchem assays: 1885, 1968 ]; format: functional
[25] = Trypanosoma cruzi growth suppression in host cells – NIH3T3 host cells, beta-gal luminescence, confirmation (AID 2044); format: functional, cell-based;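 further: intracellular parasites grown in NIH/3T3 mouse fibroblasts as host cells; luminescent beta-galactosidase reporter signal from transgenic T. cruzi replicating inside host cells; inhibitors lower the luminescence signal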
[26] = Luminescence Cell-Based Secondary HTS screen to identify cytotoxic compounds of NIH3T3 cells. [Related pubchem assays: 1885, 1968 ]; format: functional
[27] = molecular target: Peroxisome proliferator-activated receptor gamma/Nuclear receptor coactivator 2 (Homo sapiens, UniProt P37231); test: TR-FRET dose response biochemical High Throughput Screening assay for agonists of the steroid receptor coactivator 2 (SRC-2) recruitment by the peroxisome proliferator-activated receptor gamma (PPAR gamma): non-selective agonists. [Related pubchem assays: 1297, 1032 ]; format: functional
[28] = NIH3T3 cell viability loss – ATP luminescence, mouse fibroblasts, counter-screen, dose response (AID 2010); format: functional, cell-based;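 further: cells exposed to compound for about 90 hours before reading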
[29] = T. cruzi infection blockers in NIH3T3 cells – beta-gal luminescence, NIH3T3 host cells, confirmation (AID 2630); format: functional, cell-based; conditions: Mus musculus

Sequence of G2/mitotic-specific cyclin-B1 (P14635 whole entry): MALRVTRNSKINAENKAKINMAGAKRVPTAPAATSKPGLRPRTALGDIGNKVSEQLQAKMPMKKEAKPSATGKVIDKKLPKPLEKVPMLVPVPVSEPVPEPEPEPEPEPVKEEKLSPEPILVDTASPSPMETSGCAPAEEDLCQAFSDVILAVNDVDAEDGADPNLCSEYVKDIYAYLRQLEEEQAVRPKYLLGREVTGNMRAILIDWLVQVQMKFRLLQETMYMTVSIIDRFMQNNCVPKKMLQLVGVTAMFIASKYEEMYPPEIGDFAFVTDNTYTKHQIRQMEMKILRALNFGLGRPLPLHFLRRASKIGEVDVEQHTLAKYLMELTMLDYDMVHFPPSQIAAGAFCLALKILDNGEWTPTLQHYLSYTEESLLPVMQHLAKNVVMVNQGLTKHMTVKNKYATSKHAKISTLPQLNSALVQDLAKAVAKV
Sequence of Peroxisome proliferator-activated receptor gamma/Nuclear receptor coactivator 2 (P37231 whole entry): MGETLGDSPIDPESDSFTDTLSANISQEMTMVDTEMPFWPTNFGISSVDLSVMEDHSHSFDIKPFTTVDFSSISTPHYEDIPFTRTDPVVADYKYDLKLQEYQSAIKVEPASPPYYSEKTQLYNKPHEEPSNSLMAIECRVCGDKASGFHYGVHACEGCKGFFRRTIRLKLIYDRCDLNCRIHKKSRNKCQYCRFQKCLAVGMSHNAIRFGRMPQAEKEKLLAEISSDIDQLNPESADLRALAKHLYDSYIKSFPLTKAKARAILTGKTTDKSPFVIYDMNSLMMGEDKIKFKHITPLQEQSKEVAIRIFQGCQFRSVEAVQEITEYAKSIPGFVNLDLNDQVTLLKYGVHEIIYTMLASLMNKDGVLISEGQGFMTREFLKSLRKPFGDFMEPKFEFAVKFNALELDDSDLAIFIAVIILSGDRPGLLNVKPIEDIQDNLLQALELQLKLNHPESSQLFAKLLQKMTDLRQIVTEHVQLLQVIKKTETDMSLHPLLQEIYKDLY
Sequence of Peroxisome proliferator-activated receptor gamma/Nuclear receptor coactivator 2 (Q15596 whole entry, further chain): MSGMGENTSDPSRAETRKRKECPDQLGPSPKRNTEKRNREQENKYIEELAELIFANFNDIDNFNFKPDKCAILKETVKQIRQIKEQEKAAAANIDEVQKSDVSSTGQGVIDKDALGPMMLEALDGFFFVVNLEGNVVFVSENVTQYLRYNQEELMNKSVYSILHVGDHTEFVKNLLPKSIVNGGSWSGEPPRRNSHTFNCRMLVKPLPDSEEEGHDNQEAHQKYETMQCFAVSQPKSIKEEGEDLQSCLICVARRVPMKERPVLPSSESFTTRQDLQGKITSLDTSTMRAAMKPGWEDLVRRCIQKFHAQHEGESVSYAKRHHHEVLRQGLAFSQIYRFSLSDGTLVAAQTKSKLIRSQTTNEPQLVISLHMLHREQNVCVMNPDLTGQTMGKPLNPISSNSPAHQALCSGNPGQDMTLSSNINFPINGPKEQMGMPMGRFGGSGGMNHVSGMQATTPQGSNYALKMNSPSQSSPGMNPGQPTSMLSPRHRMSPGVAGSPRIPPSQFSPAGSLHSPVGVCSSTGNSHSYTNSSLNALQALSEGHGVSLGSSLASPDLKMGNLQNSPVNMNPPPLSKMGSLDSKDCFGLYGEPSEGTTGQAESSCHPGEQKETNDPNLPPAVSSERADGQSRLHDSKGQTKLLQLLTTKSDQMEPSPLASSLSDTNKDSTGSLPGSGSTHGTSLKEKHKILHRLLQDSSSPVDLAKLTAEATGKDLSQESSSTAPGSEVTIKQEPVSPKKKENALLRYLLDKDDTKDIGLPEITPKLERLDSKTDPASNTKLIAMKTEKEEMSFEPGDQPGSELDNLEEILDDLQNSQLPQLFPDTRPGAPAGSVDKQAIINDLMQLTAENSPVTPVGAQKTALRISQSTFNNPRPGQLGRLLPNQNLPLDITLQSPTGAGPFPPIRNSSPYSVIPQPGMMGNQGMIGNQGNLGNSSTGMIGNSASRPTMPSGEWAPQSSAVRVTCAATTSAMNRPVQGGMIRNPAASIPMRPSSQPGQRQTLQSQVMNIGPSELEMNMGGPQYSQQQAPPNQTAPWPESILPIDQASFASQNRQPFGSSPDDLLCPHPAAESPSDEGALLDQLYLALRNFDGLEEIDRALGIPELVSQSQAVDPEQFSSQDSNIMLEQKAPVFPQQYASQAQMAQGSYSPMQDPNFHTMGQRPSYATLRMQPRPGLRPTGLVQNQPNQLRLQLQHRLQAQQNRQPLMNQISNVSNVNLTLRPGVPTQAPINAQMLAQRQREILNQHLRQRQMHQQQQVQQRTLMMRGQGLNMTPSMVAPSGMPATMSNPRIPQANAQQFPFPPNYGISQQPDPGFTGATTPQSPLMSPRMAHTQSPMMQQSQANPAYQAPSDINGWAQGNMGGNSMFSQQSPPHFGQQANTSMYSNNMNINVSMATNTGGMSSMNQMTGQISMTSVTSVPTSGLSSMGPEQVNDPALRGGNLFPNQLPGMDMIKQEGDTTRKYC
Sequence of Peroxisome proliferator-activated receptor gamma/Nuclear receptor coactivator 1 (P37231 whole entry): as the sequence (P37231 whole entry) above
Sequence of Peroxisome proliferator-activated receptor gamma/Nuclear receptor coactivator 1 (Q15788 whole entry, further chain): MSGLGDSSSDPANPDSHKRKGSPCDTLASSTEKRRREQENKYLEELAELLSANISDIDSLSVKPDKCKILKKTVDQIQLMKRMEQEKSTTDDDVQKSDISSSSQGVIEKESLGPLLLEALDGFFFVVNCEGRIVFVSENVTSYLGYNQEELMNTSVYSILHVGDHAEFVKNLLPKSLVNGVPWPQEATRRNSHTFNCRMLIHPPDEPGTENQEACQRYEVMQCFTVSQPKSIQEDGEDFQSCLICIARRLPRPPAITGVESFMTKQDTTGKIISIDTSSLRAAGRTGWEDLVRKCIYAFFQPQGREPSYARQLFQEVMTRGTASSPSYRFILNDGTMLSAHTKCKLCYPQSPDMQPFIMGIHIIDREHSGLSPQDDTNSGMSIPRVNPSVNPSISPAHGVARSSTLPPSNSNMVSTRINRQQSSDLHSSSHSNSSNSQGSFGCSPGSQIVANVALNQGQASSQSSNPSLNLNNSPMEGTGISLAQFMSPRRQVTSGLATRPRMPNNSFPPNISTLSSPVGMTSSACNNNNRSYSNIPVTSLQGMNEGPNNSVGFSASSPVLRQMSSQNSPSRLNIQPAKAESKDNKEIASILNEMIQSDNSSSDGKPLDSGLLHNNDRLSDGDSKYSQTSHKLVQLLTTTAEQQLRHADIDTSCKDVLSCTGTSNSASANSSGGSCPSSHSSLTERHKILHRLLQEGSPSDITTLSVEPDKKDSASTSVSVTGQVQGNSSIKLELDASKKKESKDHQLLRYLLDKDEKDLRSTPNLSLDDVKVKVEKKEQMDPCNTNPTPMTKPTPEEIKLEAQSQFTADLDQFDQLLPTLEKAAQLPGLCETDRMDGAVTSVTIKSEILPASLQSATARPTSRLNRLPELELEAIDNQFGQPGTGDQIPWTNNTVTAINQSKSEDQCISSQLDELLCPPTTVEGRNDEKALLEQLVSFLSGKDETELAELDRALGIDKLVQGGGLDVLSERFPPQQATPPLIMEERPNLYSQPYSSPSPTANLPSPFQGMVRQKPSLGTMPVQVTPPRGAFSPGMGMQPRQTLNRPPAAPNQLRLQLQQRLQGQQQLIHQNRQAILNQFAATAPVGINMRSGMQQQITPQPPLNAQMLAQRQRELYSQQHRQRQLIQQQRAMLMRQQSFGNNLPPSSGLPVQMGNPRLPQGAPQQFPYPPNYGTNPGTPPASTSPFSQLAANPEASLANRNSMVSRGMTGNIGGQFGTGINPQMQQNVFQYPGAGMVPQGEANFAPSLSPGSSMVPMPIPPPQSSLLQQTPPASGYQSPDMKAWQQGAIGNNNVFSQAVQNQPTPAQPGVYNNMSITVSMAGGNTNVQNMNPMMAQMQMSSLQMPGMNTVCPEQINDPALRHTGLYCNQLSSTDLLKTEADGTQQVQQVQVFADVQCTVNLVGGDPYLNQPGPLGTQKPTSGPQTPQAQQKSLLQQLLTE
Sequence of Neuropeptide Y receptor type 1 (P25929 whole entry): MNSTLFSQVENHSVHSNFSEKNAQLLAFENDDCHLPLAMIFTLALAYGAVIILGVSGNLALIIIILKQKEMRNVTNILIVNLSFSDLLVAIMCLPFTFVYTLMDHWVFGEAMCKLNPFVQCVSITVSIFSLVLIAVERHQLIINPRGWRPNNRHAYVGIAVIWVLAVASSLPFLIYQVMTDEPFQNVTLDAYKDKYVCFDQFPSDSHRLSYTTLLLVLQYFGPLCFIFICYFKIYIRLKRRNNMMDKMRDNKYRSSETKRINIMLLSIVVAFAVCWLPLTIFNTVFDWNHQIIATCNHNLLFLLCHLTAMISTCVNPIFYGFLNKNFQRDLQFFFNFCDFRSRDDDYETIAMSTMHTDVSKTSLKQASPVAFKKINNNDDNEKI

For CC(C)(C)NC(=O)c1oc2ccccc2c1COc1ccccc1, the IC50 [1] was > 35 µM (not active) and the IC50 [2] was 18.9 µM (not active).

For O=C(COc1ccc(C(=O)c2ccc(F)cc2)cc1)NCc1ccc(F)cc1, the EC50 [3] was > 49.7 µM (not active) and the EC50 [4] was > 49.7 µM (not active).

For CCNC(S)=NNC(=O)c1cc(-c2ccc(OCC)cc2)nc2ccccc12, the EC50 [5] was 8.23 µM (inconclusive), the EC50 [6] was 16.1 µM (active) and the EC50 [7] was 19 µM (active). The EC50 [8] was 10.4 µM (active), the EC50 [9] was 3.3 µM (active) and the EC50 [10] was < 0.088 µM (active). For the same molecule, the EC50 [11] was 1.08 µM (active), the IC50 [12] was > 39.8 µM (not active) and the EC50 [13] was > 150 µM (not active). The EC50 [14] was 11.7 µM (active), the AC50 [15] was 1.7 µM (active) and the EC50 [16] was > 133 µM (inactive). For the same molecule, the AC50 [17] was > 52 µM (inactive), the AC50 [18] was 49.6 µM (active) and the AC50 [19] was 3.19 µM (active). For the same molecule, the AC50 [20] was 4.32 µM (active) and the EC50 [21] was > 67.5 µM (inactive).

For COc1cc(C(=O)NCCC(C)C)ccc1OCc1ccc(Cl)cc1Cl, the EC50 [22] was > 79.4 µM (inactive), the EC50 [23] was > 79.4 µM (not active) and the EC50 [24] was 4.43 µM (inconclusive). The EC50 [25] was 1.34 µM (active), the EC50 [26] was > 195 µM (not active) and the EC50 [27] was > 79.4 µM (not active). For the same molecule, the EC50 [28] was > 30 µM (not active) and the EC50 [29] was 4.43 µM (active).

Reference: ChEMBL document CHEMBL1201862, “PubChem BioAssay data set” (2004)
